Laboratory results from ChEMBL document CHEMBL1159170 (Bioorg Med Chem Lett, 1995).
The source made the active and inactive calls. The rule behind the calls is not given here.

What was measured:
[1] = target: D(1A) dopamine receptor (Rattus norvegicus, UniProt P18901); assay: Binding affinity against Dopamine receptor D1 in rat striatal membranes using [3H]SCH-23390; format: cell membranes, Striatum, Membrane
[2] = target: D(2) dopamine receptor (Rattus norvegicus, UniProt P61169); assay: Binding affinity against Dopamine receptor D2 in rat striatal membranes using [3H]spiperone; format: cell membranes, Striatum, Membrane
D(2) dopamine receptor, sequence (P61169 whole entry): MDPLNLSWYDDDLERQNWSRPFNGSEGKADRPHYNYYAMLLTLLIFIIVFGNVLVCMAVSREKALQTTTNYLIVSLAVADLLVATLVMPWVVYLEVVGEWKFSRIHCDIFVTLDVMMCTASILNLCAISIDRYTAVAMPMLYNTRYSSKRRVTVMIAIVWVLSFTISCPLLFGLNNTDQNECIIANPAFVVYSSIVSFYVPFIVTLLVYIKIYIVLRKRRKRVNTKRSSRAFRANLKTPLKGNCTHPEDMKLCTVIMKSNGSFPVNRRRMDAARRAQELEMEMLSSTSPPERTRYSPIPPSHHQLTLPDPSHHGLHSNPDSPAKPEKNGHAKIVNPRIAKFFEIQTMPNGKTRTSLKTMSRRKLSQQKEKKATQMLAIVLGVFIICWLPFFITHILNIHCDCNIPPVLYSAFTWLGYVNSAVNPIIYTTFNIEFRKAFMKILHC

[3] = tested on: Canis familiaris; assay: Ability to induce dilation of dog femoral artery when administered intravenously; Values is potency versus DPDA; format: functional, Canis lupus familiaris
[4] = tested on: Canis familiaris; assay: Ability to induce dilation of dog renal artery when administered intravenously; Values is potency versus DPDA; format: functional, Canis lupus familiaris
[5] = tested on: Canis familiaris; assay: Blockade of dog femoral artery dilation by the D-2 antagonist domperidone was measured after intravenous administration of […]; format: functional, Canis lupus familiaris
[6] = tested on: Canis familiaris; assay: Blockade of dog renal artery dilation by the […] was measured after intravenous administration of 0.05-0.1 mg/kg; format: functional, Canis lupus familiaris
[7] = tested on: Rattus norvegicus; assay: Compound was tested for urine flow in conscious spontaneously hypertensive rats after peroral administration of 30 mg/kg; format: functional; details: route oral
[8] = target: Beta-2 adrenergic receptor (Homo sapiens) (UniProt P07550); assay: Compound was tested for its binding affinity against beta-2 adrenoceptor; IA is Inactive
Beta-2 adrenergic receptor (Homo sapiens), sequence (P07550 whole entry, looked up): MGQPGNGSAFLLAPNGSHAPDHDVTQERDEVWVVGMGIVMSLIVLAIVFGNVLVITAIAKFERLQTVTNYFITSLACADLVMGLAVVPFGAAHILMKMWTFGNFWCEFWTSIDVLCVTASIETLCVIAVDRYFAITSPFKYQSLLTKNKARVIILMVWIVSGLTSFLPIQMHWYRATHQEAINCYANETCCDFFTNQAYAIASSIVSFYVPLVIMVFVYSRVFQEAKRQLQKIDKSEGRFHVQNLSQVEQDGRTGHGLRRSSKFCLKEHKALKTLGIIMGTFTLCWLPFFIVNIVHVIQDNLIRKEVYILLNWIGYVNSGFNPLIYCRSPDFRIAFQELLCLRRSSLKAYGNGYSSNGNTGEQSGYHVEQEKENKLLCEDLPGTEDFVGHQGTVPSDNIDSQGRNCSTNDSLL

[9] = target: Beta-1 adrenergic receptor (Homo sapiens) (UniProt P08588); assay: Compound was tested for its binding affinity against Beta-1 adrenergic receptor; IA is Inactive
Beta-1 adrenergic receptor (Homo sapiens), sequence (P08588 whole entry, looked up): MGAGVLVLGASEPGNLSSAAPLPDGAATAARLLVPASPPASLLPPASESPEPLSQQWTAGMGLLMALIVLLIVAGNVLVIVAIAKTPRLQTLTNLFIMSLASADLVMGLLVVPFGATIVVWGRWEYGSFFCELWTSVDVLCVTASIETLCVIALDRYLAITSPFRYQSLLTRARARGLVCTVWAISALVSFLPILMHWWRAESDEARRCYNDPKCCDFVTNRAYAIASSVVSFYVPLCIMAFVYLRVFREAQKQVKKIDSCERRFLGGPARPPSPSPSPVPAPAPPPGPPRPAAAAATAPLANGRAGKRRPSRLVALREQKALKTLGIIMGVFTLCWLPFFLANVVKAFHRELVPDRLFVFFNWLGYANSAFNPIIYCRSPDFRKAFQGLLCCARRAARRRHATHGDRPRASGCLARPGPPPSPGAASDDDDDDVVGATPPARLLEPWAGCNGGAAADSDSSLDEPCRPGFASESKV

[10] = target: T1, Adrenergic receptor alpha-1 (Homo sapiens, UniProt P35348+P25100+P35368); assay: Compound was tested for its binding affinity against Alpha-1 adrenergic receptor; format: protein assay
T1 sequence (P35348 whole entry): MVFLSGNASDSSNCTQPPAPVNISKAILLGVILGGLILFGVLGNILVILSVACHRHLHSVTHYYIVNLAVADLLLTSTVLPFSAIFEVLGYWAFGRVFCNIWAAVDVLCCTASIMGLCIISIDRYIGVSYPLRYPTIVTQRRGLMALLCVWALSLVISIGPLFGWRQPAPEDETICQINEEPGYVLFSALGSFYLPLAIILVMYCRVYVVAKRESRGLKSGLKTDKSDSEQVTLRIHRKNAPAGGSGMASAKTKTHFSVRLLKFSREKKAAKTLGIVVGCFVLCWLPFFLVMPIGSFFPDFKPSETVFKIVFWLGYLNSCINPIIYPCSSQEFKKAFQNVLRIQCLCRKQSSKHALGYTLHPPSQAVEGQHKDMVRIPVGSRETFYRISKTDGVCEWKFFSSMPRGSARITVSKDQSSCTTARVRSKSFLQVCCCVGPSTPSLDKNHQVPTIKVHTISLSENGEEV
T1 sequence (P25100 whole entry): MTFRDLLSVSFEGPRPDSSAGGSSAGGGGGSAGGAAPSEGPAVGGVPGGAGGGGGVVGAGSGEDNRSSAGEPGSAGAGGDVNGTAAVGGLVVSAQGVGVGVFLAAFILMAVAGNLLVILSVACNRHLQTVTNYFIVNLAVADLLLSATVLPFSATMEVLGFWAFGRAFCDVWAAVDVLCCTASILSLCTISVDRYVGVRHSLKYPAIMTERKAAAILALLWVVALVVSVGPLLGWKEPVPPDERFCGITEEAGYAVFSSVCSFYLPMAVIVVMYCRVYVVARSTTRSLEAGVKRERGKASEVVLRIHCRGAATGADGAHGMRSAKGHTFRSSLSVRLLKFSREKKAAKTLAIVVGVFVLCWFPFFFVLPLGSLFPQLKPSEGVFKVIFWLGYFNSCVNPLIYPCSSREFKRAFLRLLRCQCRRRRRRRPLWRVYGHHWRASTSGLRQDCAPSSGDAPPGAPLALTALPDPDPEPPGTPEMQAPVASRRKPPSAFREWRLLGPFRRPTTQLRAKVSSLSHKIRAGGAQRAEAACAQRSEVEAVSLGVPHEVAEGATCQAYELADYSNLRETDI
T1 sequence (P35368 whole entry): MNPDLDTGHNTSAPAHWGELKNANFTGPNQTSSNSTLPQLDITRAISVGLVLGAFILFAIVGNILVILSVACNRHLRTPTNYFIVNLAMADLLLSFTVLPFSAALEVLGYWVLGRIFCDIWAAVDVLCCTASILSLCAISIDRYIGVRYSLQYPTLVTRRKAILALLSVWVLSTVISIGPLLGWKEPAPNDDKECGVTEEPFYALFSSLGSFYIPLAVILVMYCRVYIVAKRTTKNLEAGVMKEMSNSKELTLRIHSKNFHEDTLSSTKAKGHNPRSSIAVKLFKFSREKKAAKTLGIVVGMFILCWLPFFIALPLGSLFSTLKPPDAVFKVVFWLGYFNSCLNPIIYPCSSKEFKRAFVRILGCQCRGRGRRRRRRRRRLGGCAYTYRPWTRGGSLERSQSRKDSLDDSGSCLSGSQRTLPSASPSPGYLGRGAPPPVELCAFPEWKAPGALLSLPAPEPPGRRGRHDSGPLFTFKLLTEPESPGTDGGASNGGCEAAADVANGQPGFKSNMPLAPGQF

[11] = tested on: Rattus norvegicus; assay: Compound was tested for mean blood pressure effect in conscious spontaneously hypertensive rats after peroral administration of 30 mg/kg; format: functional; details: route oral

D(1A) dopamine receptor, sequence (P18901 whole entry): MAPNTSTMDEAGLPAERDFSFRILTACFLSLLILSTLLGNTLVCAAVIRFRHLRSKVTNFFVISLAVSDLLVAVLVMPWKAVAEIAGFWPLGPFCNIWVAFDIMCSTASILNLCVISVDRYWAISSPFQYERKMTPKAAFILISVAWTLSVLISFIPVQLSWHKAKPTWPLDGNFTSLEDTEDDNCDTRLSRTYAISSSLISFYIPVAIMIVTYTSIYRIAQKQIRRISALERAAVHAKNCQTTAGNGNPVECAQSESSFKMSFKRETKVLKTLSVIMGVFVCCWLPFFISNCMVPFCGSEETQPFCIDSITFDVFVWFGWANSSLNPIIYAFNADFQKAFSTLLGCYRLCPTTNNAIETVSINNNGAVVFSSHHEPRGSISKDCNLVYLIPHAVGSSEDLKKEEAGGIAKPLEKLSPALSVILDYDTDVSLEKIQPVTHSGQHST

| Ki [1] [nM] | Ki [2] [nM] | Log Ki [8] | Log Ki [9] | Log Ki [10] | SMILES | Change in blood flow [3] | Change in blood flow [4] | Blockade [5] [%] | Blockade [6] [%] | Cumulative urine volume [7] | Decrease in blood pressure [11] |
| --- | --- | --- | --- | --- | --- | --- | --- | --- | --- | --- | --- |
| 18.6 | 3.24 | inactive | inactive | -6.41 | CCCN(CCCCCCN1CCC[C@@H]1Cc1ccc(O)c(O)c1)CCc1ccc(O)c(O)c1 | 382 | 6 | 70 | 100 | 24 | 18.6 |
| 617 | 14.8 | inactive | inactive | -6.41 | Oc1ccc(C[C@@H]2CCCN2CCCCCCN2CCC[C@H]2Cc2ccc(O)c(O)c2)cc1O | 0.3 | 1.2 | 0 | 100 | – | – |
| 6.46 | 6.17 | inactive | inactive | -7.25 | Oc1ccc(C[C@H]2CCCN2CCCCCCN2CCC[C@@H]2Cc2ccc(O)c(O)c2)cc1O | 359 | 1.2 | 70 | 100 | 17 | 22.4 |
| 575 | 8.91 | inactive | inactive | -6.24 | Oc1ccc(C[C@H]2CCCN2CCCCCCN2CCC[C@H]2Cc2ccc(O)c(O)c2)cc1O | 80 | 9.4 | 20 | 100 | – | – |

The remaining lines, values behind:

| SMILES | Ki [1] [nM] | Ki [2] [nM] | Log Ki [8] | Log Ki [9] | Log Ki [10] | Change in blood flow [3] | Change in blood flow [4] | Blockade [5] [%] | Blockade [6] [%] | Cumulative urine volume [7] | Decrease in blood pressure [11] |
| --- | --- | --- | --- | --- | --- | --- | --- | --- | --- | --- | --- |
| CCCCN1CCCC1Cc1ccc(O)c(O)c1 (stereo not given) | 7.94 | 3.16 | – | – | – | – | – | – | – | – | – |
| CCCN(CCC)CCc1ccc(O)c(O)c1 | 4680 | 22.4 | – | – | -5.7 | 1 | – | 80 | – | – | – |
| Oc1ccc(C2CNCCc3c2cc(O)c(O)c3Cl)cc1 (stereo not given) [FENOLDOPAM] | – | – | – | – | – | 0.2 | 8 | 20 | 100 | – | – |
| NCCc1ccc(O)c(O)c1 [DOPAMINE] | – | – | – | – | – | – | 1 | – | 100 | 4 | 9.4 |
